Experimental data as given in paper PMC5547389, “Structure-activity relationships and molecular docking studies of chromene and chromene based azo chromophores: A novel series of potent antimicrobial and anticancer agents” (EXCLI Journal, 2017).
In brackets after ≈: the same amount, converted by molar mass. Like-named read-outs stand apart in the source and are kept apart here.

Experiments:
[1] = tested on: Gm+ve bacteria, Gm-ve bacteria, fungi; test: Well diffusion assay, statements over groups of microorganisms; type: cell-based
Description: The microorganism inoculums were uniformly spread using sterile cotton swabs on a sterile Petri dish malt extract agar (for fungi) and nutrient agar (for bacteria). One hundred cubic millimeters of each sample was added to each well (10 mm-diameter holes were cut in the agar gel, 20 mm apart from one another). The systems were incubated for 24-48 h at 37 °C (for bacteria) and at 28 °C (for fungi). After incubation, the microorganism growth was observed. Inhibition zones of the bacterial and fungal growth were measured in millimeters. Tests were performed in triplicate (Cappuccino and Sherman, 1999[12]; Vanden Berghe and Vlientinck, 1991[62]).
All the newly synthesized compounds described in this report were screened for both antibacterial and antifungal activity via the reported agar diffusion well method (Vanden Berghe and Vlietinck, 1991[62]). The inhibition zones and minimum inhibitory concentrations (MIC) were determined by the serial dilution method (Cappuccino and Sherman, 1999[12]). […]

[2] = tested on: Geotricum candidum (RCMB 05097); test: Well diffusion assay (inhibition zone); type: cell-based; conditions: read-out: Inhibition Zone (IZ) diameter, G.C
Summary of the method: (§1)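 Agar well diffusion with 10 mm wells, nutrient agar for bacteria and malt extract agar for fungi. Plates were incubated 24-48 h at 37 °C for bacteria or 28 °C for fungi. Inhibition zone diameters were measured in mm, in triplicate.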

[3] = tested on: Syncephalastrum racemosum (RCMB 05922); test: Well diffusion assay (inhibition zone); type: cell-based
Summary of the method: as §1

[4] = tested on: Streptococcus pneumoniae (RCMB 010010); test: Well diffusion assay (inhibition zone); type: cell-based
Summary of the method: as §1

[5] = tested on: Aspergillus fumigatus (RCMB 02568); test: Well diffusion assay (inhibition zone); type: cell-based
Summary of the method: as §1

[6] = tested on: Escherichia coli (RCMB 010052); test: Well diffusion assay (inhibition zone); type: cell-based
Summary of the method: as §1

[7] = tested on: Bacillus subtilis (RCMB 010067); test: Well diffusion assay (inhibition zone); type: cell-based
Summary of the method: as §1

[8] = tested on: human hepatocellular carcinoma (HEPG-2); test: Cytotoxic screening; type: cell-based; conditions: HepG2, read-out: IC50 HepG-2
Summary of the method: (§2)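 Read-out is crystal violet staining (the text also names MTT), lysis in 33 % acetic acid, A590, with untreated cells as 100 %. IC50 was estimated graphically from survival curves.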

[9] = tested on: human breast adenocarcinoma (MCF-7); test: Cytotoxic screening; type: cell-based
Summary of the method: as §2

[10] = tested on: Human colon carcinoma (HCT-116); test: Cytotoxic screening; type: cell-based
Summary of the method: as §2

[11] = tested on: Candida albicans (RCMB 05036); test: Well diffusion assay (inhibition zone); type: cell-based; conditions: RCMB05036, 5 mg/mL in DMSO, fungi, read-out: Inhibition Zone (IZ) diameter, C.A
Summary of the method: as §1

[12] = tested on: Geotricum candidum (RCMB 05097); test: MIC by serial dilution method; type: cell-based; conditions: read-out: Minimum inhibitory concentration, MIC, G.C
Description: (§3) All the newly synthesized compounds described in this report were screened for both antibacterial and antifungal activity via the reported agar diffusion well method (Vanden Berghe and Vlietinck, 1991[62]). The inhibition zones and minimum inhibitory concentrations (MIC) were determined by the serial dilution method (Cappuccino and Sherman, 1999[12]). The antimicrobial activity of the synthesized compounds was tested against a broad panel of microorganisms including two Gram-positive bacteria: Streptococcus pneumoniae (RCMB 010010) and Bacillus subtilis (RCMB 010067), two Gram-negative bacteria: Pseudomonas aeruginosa (RCMB 010043) and Escherichia coli (RCMB 010052), and four fungi: Aspergillus fumigatus (RCMB 02568), Syncephalastrum racemosum (RCMB 05922), Geotricum candidum (RCMB 05097), and Candida albicans (RCMB 05036). Ampicillin, ciprofloxacin, gentamicin and amphotericin B were used as positive control drugs (Atta-ur-Rahman and Thomsen, 2001[7]; Smania et al., 1999[57]). […] While in the case of Gm-ve bacteria, they had weak activity. In addition, certain strains of fungi were sensitive to tested compounds with an IZ range from 12-25 except Candida albicans.

[13] = tested on: Syncephalastrum racemosum (RCMB 05922); test: MIC by serial dilution method; type: cell-based
Description: as §3

[14] = tested on: Aspergillus fumigatus (RCMB 02568); test: MIC by serial dilution method; type: cell-based
Description: as §3

[15] = tested on: Streptococcus pneumoniae (RCMB 010010); test: MIC by serial dilution method; type: cell-based; conditions: RCMB010010, read-out: Minimum inhibitory concentration, MIC, S.P
Description: as §3

[16] = tested on: Escherichia coli (RCMB 010052); test: MIC by serial dilution method; type: cell-based; conditions: RCMB010052, read-out: Minimum inhibitory concentration, MIC, E.C
Description: as §3

[17] = tested on: Bacillus subtilis (RCMB 010067); test: MIC by serial dilution method; type: cell-based; conditions: RCMB010067, read-out: Minimum inhibitory concentration, MIC, B.S
Description: as §3

HCT-116, MCF-7, HEPG-2 = test: Cytotoxic screening, statements over the three cell lines; type: cell-based; conditions: Homo sapiens, read-out: IC50, range over the three cell lines
Description: Human colon carcinoma (HCT-116), human hepatocellular carcinoma (HEPG-2), adenocarcinomic human alveolar basal epithelial cell (A-549), and human breast adenocarcinoma (MCF-7) cell lines were obtained from the American Type Culture Collection (ATCC, Rockville, MD). The cells were grown on RPMI-1640 medium supplemented with 10 % inactivated fetal calf serum and 50 µg/ml gentamycin. The cells were maintained at 37 °C in a humidified atmosphere with 5 % CO2 and were subcultured two to three times a week. Potential cytotoxicity of the compounds was evaluated on tumor cells using the method of Gangadevi and Muthumary (2007[21]) (Klancnik et al., 2010[36]). The cells were grown as monolayers in growth RPMI-1640. The monolayers of 104 cells adhered at the bottom of the wells in a 96-well microtiter plate incubated for 24 h at 37 °C in a humidified incubator with 5 % CO2. The monolayers were then washed with sterile phosphate buffered saline (0.01 M pH 7.2) and simultaneously the cells were treated with 100 µL from different dilutions of tested sample in fresh maintenance medium and incubated at 37 °C. A control of untreated cells was made in the absence of tested sample. Positive controls containing doxorubicin were also tested as a reference drug for comparison. Six wells were used for each concentration of the test sample. Every 24 hours an observation under the inverted microscope was made. The number of the surviving cells was determined by staining the cells with crystal violet (Mosmann, 1983[42]; Gangadevi and Muthumary, 2007[21]) followed by cell lysing using 33 % glacial acetic acid and reading the absorbance at 590 nm using microplate reader (SunRise, TECAN, Inc, USA) after well mixing. The absorbance values from untreated cells were considered as 100 % proliferation. The number of viable cells was determined using microplate reader as previously mentioned before and the percentage of […] was calculated as [1-(ODt/ODc)] x 100 % where ODt is the mean optical density of wells treated with the tested sample and ODc is the mean optical density of untreated cells. The relation between surviving cells and drug concentration was plotted to get the survival curve of each tumor cell line after treatment with the specified compound. The 50 % inhibitory concentration (IC50), the concentration required to cause toxic effects in 50 % of intact cells, was estimated from graphic plots.
The in vitro cytotoxic activity was performed by MTT assay (Mosmann, 1983[42]; Alley et al., 1988[6]) against three human carcinoma cell lines: Human colon carcinoma (HCT-116), human breast adenocarcinoma (MCF-7), and human hepatocellular carcinoma (HEPG-2).

[18] = RCMB05922, 5 mg/mL in DMSO, fungi, read-out: Inhibition Zone (IZ) diameter, S.R
[19] = RCMB010010, 5 mg/mL in DMSO, Gm+ve, read-out: Inhibition Zone (IZ) diameter, S.P
[20] = RCMB02568, 5 mg/mL in DMSO, fungi, read-out: Inhibition Zone (IZ) diameter, A.F
[21] = RCMB010052, 5 mg/mL in DMSO, Gm-ve, read-out: Inhibition Zone (IZ) diameter, E.C
[22] = RCMB010067, 5 mg/mL in DMSO, Gm+ve, read-out: Inhibition Zone (IZ) diameter, B.S
[23] = Homo sapiens, MCF7; read-out: IC50 MCF-7
[24] = Homo sapiens, HCT-116; read-out: IC50 HCT-116

| Compound | IZ range against Gm+ve, Gm-ve bacteria, and fungi [1] | zone of inhibition at 5000 µg/mL ([2]; 5 mg/mL in DMSO, fungi) [mm] | zone of inhibition at 5000 µg/mL [3, 18] [mm] | zone of inhibition at 5000 µg/mL [4, 19] [mm] | zone of inhibition at 5000 µg/mL [5, 20] [mm] | zone of inhibition at 5000 µg/mL [6, 21] [mm] | zone of inhibition at 5000 µg/mL [7, 22] [mm] | melting point [°C] | IC50 [8] [µg/mL] | IC50 [9, 23] [µg/mL] | IC50 [10, 24] [µg/mL] | zone of inhibition at 5000 µg/mL [11] [mm] | other results |
| --- | --- | --- | --- | --- | --- | --- | --- | --- | --- | --- | --- | --- | --- |
| COc1ccc(C2C(C#N)=C(N)Oc3c2ccc2c(N)cccc32)cc1 (stereo not shown) [7b, 2,7-Diamino-4-(4-methoxy-phenyl)-4H-benzo[h]chromene-3-carbonitrile] | 18-23 mm | 22.6 | 20.3 | 22.4 | 21.6 | 22.1 | 23.2 | 185 | 28.2 (≈ 82.1 µM) | 25.9 (≈ 75.4 µM) | 44.1 (≈ 128 µM) | – | – |
| N#CC1=C(N)Oc2c(ccc3c(N)cccc23)C1c1c(F)cc(F)cc1F (stereo not shown) [7d, 2,7-Diamino-4-(2,4,6-trifluoro-phenyl)-4H-benzo[h]chromene-3-carbonitrile] | 18-23 mm | 22.4 | 18.1 | 21.6 | 20.3 | 20.8 | 22.3 | 235 | 52.3 (≈ 142 µM) | 54 (≈ 147 µM) | 61.3 (≈ 167 µM) | – | – |
| CC(=O)c1ccc(N=Nc2cc3c(cc2O)OC(N)=C(C#N)C3c2ccc(F)cc2)cc1 (stereo not shown) [13d, 6-(4-Acetyl-phenylazo)-2-amino-4-(4-fluoro-phenyl)-7-hydroxy-4H-chromene-3-carbonitrile] | – | – | 11.4 | 12.9 | 13.4 | 10.8 | 13.2 | 265 | 85 (≈ 198 µM) | 80 (≈ 187 µM) | 75 (≈ 175 µM) | 8 | – |
| C[C@@H]1[C@H](O)[C@@H](C)/C=C/C=C/C=C/C=C/C=C/C=C/C=C/[C@H](O[C@@H]2O[C@H](C)[C@@H](O)[C@H](N)[C@@H]2O)C[C@@H]2O[C@](O)(C[C@@H](O)C[C@@H](O)[C@H](O)CC[C@@H](O)C[C@@H](O)CC(=O)O[C@H]1C)C[C@H](O)[C@H]2C(=O)O [Amphotericin B, reference compound] | – | 28.7 | 19.7 | – | 23.7 | – | – | – | – | – | – | 25.4 | MIC ([12]; fungi): 0.015 µg/mL (≈ 0.0162 µM); MIC ([13]; RCMB05922, fungi, read-out: Minimum inhibitory concentration, MIC, S.R): 3.9 µg/mL (≈ 4.22 µM); MIC ([14]; RCMB02568, fungi, read-out: Minimum inhibitory concentration, MIC, A.F): 0.24 µg/mL (≈ 0.26 µM) |
| Nc1cc2ccccc2cc1O [compound 1, 3-amino-2-naphthol] | – | – | – | – | – | – | – | – | 60.5 (≈ 380 µM) | – | – | – | zone of inhibition at 5000 µg/mL [2]: 19.2 mm; zone of inhibition at 5000 µg/mL ([3]; RCMB05922, read-out: Inhibition Zone (IZ) diameter, S.R): 14.3 mm; zone of inhibition at 5000 µg/mL ([4]; RCMB010010, read-out: Inhibition Zone (IZ) diameter, S.P): 15.9 mm; zone of inhibition at 5000 µg/mL ([5]; RCMB02568, read-out: Inhibition Zone (IZ) diameter, A.F): 16.6 mm; zone of inhibition at 5000 µg/mL ([6]; RCMB010052, read-out: Inhibition Zone (IZ) diameter, E.C): 15.5 mm; zone of inhibition at 5000 µg/mL ([7]; RCMB010067, read-out: Inhibition Zone (IZ) diameter, B.S): 17.8 mm; MIC [12]: 62.5 µg/mL (≈ 393 µM); MIC ([13]; RCMB05922, read-out: Minimum inhibitory concentration, MIC, S.R): 7.81 µg/mL (≈ 49.1 µM); MIC [15]: 15.6 µg/mL (≈ 98.1 µM); MIC ([14]; RCMB02568, read-out: Minimum inhibitory concentration, MIC, A.F): 15.6 µg/mL (≈ 98.2 µM); MIC [16]: 7.8 µg/mL (≈ 49 µM); MIC [17]: 31.2 µg/mL (≈ 196 µM); IC50 (HCT-116, MCF-7, HEPG-2): 60 to 230 µg/mL (≈ 377 to 1440 µM); IC50 ([9]; Homo sapiens, MCF7, read-out: IC50 MCF-7): 230 µg/mL (≈ 1440 µM); IC50 ([10]; Homo sapiens, HCT-116, read-out: IC50 HCT-116): 218 µg/mL (≈ 1370 µM) |
